Test results: US9492447B2, “Cannabinoid receptor modulators” (Arena Pharmaceuticals, Inc., priority 2011, dated 2016)
Values joined by “and” are separate entries in the source; they are usually repeats but may differ in a detail not shown here. Equal entries are not always repeated.

Experiments:
[1] = tested on: Monosodium iodoacetate-induced osteoarthritis rats; assay: Combination of Compound 699 and morphine in MIA-induced osteoarthritis pain, Von Frey test; assay type: in vivo, rat; conditions: 1 mpk morphine intraperitoneally; Von Frey one hour post-dosing
[2] = biological target: T1, human CB2 receptor (Homo sapiens, UniProt P34972); assay: PathHunter β-arrestin assay, CB2 assay; assay type: cell-based
T1 construct: CB2 was cloned into the pCMV-PK vector; 93-0164 (CHO-K1 EA-Arrestin parental cell line)
T1 sequence (P34972 whole entry): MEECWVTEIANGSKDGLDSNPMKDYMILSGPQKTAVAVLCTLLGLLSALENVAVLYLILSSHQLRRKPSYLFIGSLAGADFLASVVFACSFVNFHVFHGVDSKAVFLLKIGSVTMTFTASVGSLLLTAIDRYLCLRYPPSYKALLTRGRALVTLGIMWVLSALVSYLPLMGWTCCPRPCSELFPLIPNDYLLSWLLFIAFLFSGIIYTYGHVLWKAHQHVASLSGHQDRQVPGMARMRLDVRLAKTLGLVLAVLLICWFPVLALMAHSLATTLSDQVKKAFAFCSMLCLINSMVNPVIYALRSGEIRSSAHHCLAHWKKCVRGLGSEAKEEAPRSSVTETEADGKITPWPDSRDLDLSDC

[3] = tested on: STZ-induced PDPN model, diabetic and allodynic rats; assay: Streptozotocin-induced painful diabetic peripheral neuropathy (PDPN) model; assay type: in vivo, rat; conditions: 10 mg/kg orally in 0.5% methylcellulose; 1, 4 and 6 hours post-dosing; FIG. 13, 14
Procedure: Male Sprague-Dawley rats were injected intraperitoneally with 50 mg/kg of streptozotocin (STZ) in sodium citrate buffer. 10% sucrose water was provided ad libitum for the first 48 hours post-STZ followed by regular drinking water. Rats were monitored once weekly for blood glucose levels and body weights. Development of tactile allodynia over time was analyzed using Von Frey filaments and a 50% withdrawal threshold was determined using Dixon's up-down procedure. […] Tactile allodynia was evaluated at 1, 4 and 6 hours post-dosing.

[4] = tested on: acute and chronic pain from chemical, mechanical, and thermal pain stimuli; conditions: animal studies; cited from earlier work
[5] = Dynamic moisture-sorption (DMS) analysis; assay type: physicochemical
Procedure: A dynamic moisture-sorption (DMS) study was conducted using a dynamic moisture-sorption analyzer, VTI Corporation, SGA-100. The instrument was calibrated using polyvinyl pyrrolidone (PVP) and NaCl. Samples were prepared for DMS analysis by placing 5 mg to 20 mg of a sample in a tared sample holder. The sample was placed on the hang-down wire of the VTI balance. A drying step was run, typically at 40° C. and 0.5-1% RH for 1 h. The isotherm temperature is 25° C. Defined % RH holds typically ranged from 10% RH to 90% RH, with intervals of 10 to 20% RH. A % weight change smaller than 0.010% over 10 min, or up to 2 h, whichever occurred first, was required before continuing to the next % RH hold. The water content of the sample equilibrated as described above was determined at each % RH hold.

[6] = tested on: rats following ligation of spinal nerves; conditions: cited from earlier work

Structure (SMILES): CN1CC[C@]23c4c5ccc(O)c4O[C@H]2[C@@H](O)C=C[C@H]3[C@H]1C5 [morphine, reference compound]
- paw withdrawal threshold (PWT), individual values [1]: 4.25 and 8.44 and 5.57 and 5.44 and 4.72 and 2.02

Structure (SMILES): CC(C)(NC(=O)c1nn(-c2c[n+]([O-])ccn2)c2c1C[C@@H]1C[C@H]21)C(F)(F)F [Compound 919, (1aS,5aS)-2-(4-Oxy-pyrazin-2-yl)-1a,2,5,5a-tetrahydro-1H-2,3-diaza-cyclopropa[a]pentalene-4-carboxylic Acid (2,2,2-Trifluoro-1,1-dimethyl-ethyl)-amide]
- EC50 [2]: 2.8 nM
- analgesic efficacy, tactile allodynia (50% withdrawal threshold) [3]: robust and sustained analgesic efficacy over 6 hours

Structure (SMILES): CCCCC/C=C\C/C=C\C/C=C\C/C=C\CCCC(=O)NCCO [anandamide]
- effect against acute and chronic pain [4]: effective against acute and chronic pain

Structure (SMILES): O=C(NC1(C(F)(F)F)CCC1)c1nn(-c2c[n+]([O-])ccn2)c2c1C[C@@H]1C[C@H]21 [Compound 765, (1aS,5aS)-2-(4-Oxy-pyrazin-2-yl)-1a,2,5,5a-tetrahydro-1H-2,3-diaza-cyclopropa[a]pentalene-4-carboxylic Acid (1-Trifluoromethyl-cyclobutyl)-amide]
- EC50 [2]: 1.1 nM

Structure (SMILES): O=C(N[C@H]1c2ccccc2C[C@H]1O)c1nn(-c2c[n+]([O-])ccn2)c2c1C[C@@H]1C[C@H]21 [Compound 921, (1aS,5aS)-2-(4-Oxy-pyrazin-2-yl)-1a,2,5,5a-tetrahydro-1H-2,3-diaza-cyclopropa[a]pentalene-4-carboxylic Acid ((1S,2R)-2-Hydroxy-indan-1-yl)-amide]
- EC50 [2]: 2.2 nM

Structure (SMILES): CC(C)(C)[C@@H](CO)NC(=O)c1nn(-c2c[n+]([O-])ccn2)c2c1C[C@@H]1C[C@H]21 [Compound 699 (Anhydrous Form), (1aS,5aS)-2-(4-Oxy-pyrazin-2-yl)-1a,2,5,5a-tetrahydro-1H-2,3-diaza-cyclopropa[a]pentalene-4-carboxylic Acid ((S)-1-Hydroxymethyl-2,2-dimethyl-propyl)-amide]
- Weight (% Change) ([5]; adsorption, sample RH 29.94 %, 25.32): 0.151%
- Weight (% Change) ([5]; adsorption, sample RH 49.86 %, 25.31): 0.282%
- Weight (% Change) ([5]; adsorption, sample RH 69.77 %, 25.3): 0.482%
- Weight (% Change) ([5]; adsorption, sample RH 79.70 %, 25.29): 0.581%
- Weight (% Change) ([5]; adsorption, sample RH 89.72 %, 25.3): 0.762%
- Weight (% Change) ([5]; desorption, sample RH 10.06 %, 25.29): 0.080%
- Weight (% Change) ([5]; desorption, sample RH 29.99 %, 25.29): 0.181%
- Weight (% Change) ([5]; desorption, sample RH 50.07 %, 25.3): 0.364%
- Weight (% Change) ([5]; desorption, sample RH 70.11 %, 25.30): 0.526%
- Weight (% Change) ([5]; sample RH […], 25.46, elapsed 46.6 min (after drying)): 0%

Structure (SMILES): CCCCCc1cc(O)c2c(c1)OC(C)(C)[C@@H]1CCC(C)=C[C@@H]21 [THC]
- effect against acute and chronic pain [4]: effective against acute and chronic pain

Structure (SMILES): COc1ccc(C(=O)c2c(C)n(CCN3CCOCC3)c3cc(I)ccc23)cc1 [AM630]
- effect on the reversal of hypersensitivity by AM1241 ([6]; treatment with CB2-selective antagonist): inhibited

Structure (SMILES): COc1ccc2c(c1)c(CCN1CCOCC1)c(C)n2C(=O)c1cccc(Cl)c1Cl [GW405833]
- effect on hypersensitivity to mechanical stimuli ([6]; administered systemically): significantly reverses hypersensitivity to mechanical stimuli

Structure (SMILES): Cc1c(C(=O)c2cccc3ccccc23)c2cccc3c2n1[C@H](CN1CCOCC1)CO3 [WIN 55212-2]
- effect against acute and chronic pain [4]: effective against acute and chronic pain

Structure (SMILES): O=C(NC1(C(F)(F)F)CCC1)c1nn(-c2cnccn2)c2c1C[C@@H]1C[C@H]21 [Compound 926, (1aS,5aS)-2-Pyrazin-2-yl-1a,2,5,5a-tetrahydro-1H-2,3-diaza-cyclopropa[a]pentalene-4-carboxylic Acid (1-Trifluoromethyl-cyclobutyl)-amide]
- EC50 [2]: 4.1 nM

Structure (SMILES): CCCCCCC(C)(C)c1ccc([C@@H]2C[C@H](O)CC[C@H]2CCCO)c(O)c1 [CP55,940]
- effect against acute and chronic pain [4]: effective against acute and chronic pain
